The text below walks through data of patent publication US4179433A, “Angiotensin II antagonist peptides containing an alpha-aminooxyacid in the position-1” (Richter Gedeon Vegyeszeti Gyar Rt., priority 1977, dated 1979).

This assay has as its system narcoticized male cats. In words: Decrease in arterial blood pressure after intravenous administration, under i.v. infusion of angiotensin II. The note with it: single dose, angiotensin II infusion 0.5 μg/kg/min, average of 6 experiments. Type of assay: in vivo, cat. On the procedure: The antagonistic activity of the compounds having the formula I was tested on narcoticized male cats. The blood pressure was measured on the cervical artery. The tests were performed by introducing a Hypertension (CIBA) infusion into a lateral femoral vane at a speed of 0.5 μg/kg/min. When the increase in blood pressure was stabilized, the aqueous, physiological or carrier-containing solutions of the test compounds and Saralasin were administered in a single dose, intravenously or subcutaneously, and the decrease in blood pressure was measured. In the Table I the decrease in the arterial blood pressure under the influence of an intravenous administration of the test compounds is illustrated. For comparison Saralasin is used. The data set forth in the Table 1 were obtained by calculating the average of the results of 6 experiments. The margins of error indicate the scatter of the main value.

In the case of `CNCC(=O)N[C@@H](CCCN=C(N)N)C(=O)N[C@H](C(=O)N[C@@H](Cc1ccc(O)cc1)C(=O)N[C@H](C(=O)N[C@@H](Cc1cnc[nH]1)C(=O)N1CCC[C@H]1C(=O)N[C@@H](C)C(=O)O)C(C)C)C(C)C` [Saralasin], the “Decrease in blood pressure (mmHg) after administration of 10 μg/kg i.v. doses” value is reported as -41±2.5 mmHg.
